The subject of the test is human umbilical vein endothelial cells (HUVEC). Description: HUVEC proliferation assay (VEGF-stimulated, MTT). The test is classed as cell-based. The following applies: Library III; HUVEC proliferation; nominal concentration of 0.5 nM; crude reaction mixtures.

The values below come from patent publication US6534524B1, “Indazole compounds and pharmaceutical compositions for inhibiting protein kinases, and methods for their use” (Agouron Pharmaceuticals, Inc., priority 1999, dated 2003).

In the case of `O=C(Nc1ccc(F)cc1)c1ccccc1Sc1ccc2c(/C=C/c3ccccn3)n[nH]c2c1`, the “% inhibition” value was −1%.

As to `Cc1ccc2ccccc2c1NC(=O)c1ccccc1Sc1ccc2c(/C=C/c3ccccn3)n[nH]c2c1`, the “% inhibition” value is given as −19%.

In the case of `COc1ccc(OC)c(NC(=O)c2ccccc2Sc2ccc3c(/C=C/c4ccccn4)n[nH]c3c2)c1`, the “% inhibition” value is −5%.

As for `COc1cc(NC(=O)c2ccccc2Sc2ccc3c(/C=C/c4ccccn4)n[nH]c3c2)cc(OC)c1`, the “% inhibition” value is −60%.

For `COC(=O)c1ccc(NC(=O)c2ccccc2Sc2ccc3c(/C=C/c4ccccn4)n[nH]c3c2)c(C)c1`, the “% inhibition” value is on record as −46%.

Turning to `O=C(NCC(F)(F)C(F)(F)F)c1ccccc1Sc1ccc2c(/C=C/c3ccccn3)n[nH]c2c1`, the “% inhibition” value was −22%.

In the case of `N#CC(NC(=O)c1ccccc1Sc1ccc2c(/C=C/c3ccccn3)n[nH]c2c1)c1ccc(F)cc1` (stereo not shown), the “% inhibition” value is listed as −20%.

Consider `O=C(NCc1ccc(F)cc1Cl)c1ccccc1Sc1ccc2c(/C=C/c3ccccn3)n[nH]c2c1`, for which the “% inhibition” value is −7%.

As for `CCCCC(CO)NC(=O)c1ccccc1Sc1ccc2c(/C=C/c3ccccn3)n[nH]c2c1` (stereo not shown), the “% inhibition” value was −28%.

As to `O=C(Nc1ccc(O)c(F)c1)c1ccccc1Sc1ccc2c(/C=C/c3ccccn3)n[nH]c2c1`, the “% inhibition” value is recorded as −10%.

`O=C(NC(CO)CC1CCCCC1)c1ccccc1Sc1ccc2c(C=Cc3ccccn3)n[nH]c2c1` (stereo not shown): the “% inhibition” value was found to be 13%.

For the molecule `CC(C)(C)C(CO)NC(=O)c1ccccc1Sc1ccc2c(C=Cc3ccccn3)n[nH]c2c1` (stereo not shown), the “% inhibition” value is given as −7%.

Consider `O=C(Nc1cccc(-c2ccccc2)c1)c1ccccc1Sc1ccc2c(/C=C/c3ccccn3)n[nH]c2c1`, for which the “% inhibition” value is on record as −13%.

As to `CSCCC(CO)NC(=O)c1ccccc1Sc1ccc2c(/C=C/c3ccccn3)n[nH]c2c1` (stereo not shown), the “% inhibition” value is reported as −45%.

In the case of `CCC(C)C(CO)NC(=O)c1ccccc1Sc1ccc2c(C=Cc3ccccn3)n[nH]c2c1` (stereo not shown), the “% inhibition” value is listed as −40%.

Regarding `CCOC(CCCNC(=O)c1ccccc1Sc1ccc2c(/C=C/c3ccccn3)n[nH]c2c1)OCC`, the “% inhibition” value was −11%.

`O=C(NCCSCCO)c1ccccc1Sc1ccc2c(/C=C/c3ccccn3)n[nH]c2c1`: the “% inhibition” value is −31%.

Consider `CC(C)c1ccccc1NC(=O)c1ccccc1Sc1ccc2c(/C=C/c3ccccn3)n[nH]c2c1`, for which the “% inhibition” value was −30%.

On to `CSCCC(CO)NC(=O)c1ccccc1Sc1ccc2c(C=Cc3ccccn3)n[nH]c2c1` (stereo not shown), for which the “% inhibition” value is reported as −11%.

Consider `CC(C)(CO)NC(=O)c1ccccc1Sc1ccc2c(/C=C/c3ccccn3)n[nH]c2c1`, for which the “% inhibition” value is reported as −2%.

As to `CSCCNC(=O)c1ccccc1Sc1ccc2c(/C=C/c3ccccn3)n[nH]c2c1`, the “% inhibition” value was determined as 18%.

As to `CCSCCNC(=O)c1ccccc1Sc1ccc2c(/C=C/c3ccccn3)n[nH]c2c1`, the “% inhibition” value is recorded as 7%.

Turning to `CCCCN(CCCC)CCNC(=O)c1ccccc1Sc1ccc2c(/C=C/c3ccccn3)n[nH]c2c1`, the “% inhibition” value came out at 1%.

On to `COC(OC)C(C)NC(=O)c1ccccc1Sc1ccc2c(/C=C/c3ccccn3)n[nH]c2c1` (stereo not shown), for which the “% inhibition” value came to 0%.

`O=C(NC(CO)(CO)CO)c1ccccc1Sc1ccc2c(/C=C/c3ccccn3)n[nH]c2c1`: the “% inhibition” value stood at 14%.

For `CCC(CO)(CO)NC(=O)c1ccccc1Sc1ccc2c(/C=C/c3ccccn3)n[nH]c2c1`, the “% inhibition” value worked out at 61%.

As to `CCC(C)C(NC(=O)c1ccccc1Sc1ccc2c(C=Cc3ccccn3)n[nH]c2c1)C(=O)NO` (stereo not shown), the “% inhibition” value is given as 9%.

Consider `O=C(Nc1ccc2ncccc2c1)c1ccccc1Sc1ccc2c(/C=C/c3ccccn3)n[nH]c2c1`, for which the “% inhibition” value came out at 1%.

On to `O=C(Nc1ccccc1-c1ccccc1)c1ccccc1Sc1ccc2c(/C=C/c3ccccn3)n[nH]c2c1`, for which the “% inhibition” value is 1%.

As for `O=C(Nc1cccc(C(F)(F)F)c1)c1ccccc1Sc1ccc2c(/C=C/c3ccccn3)n[nH]c2c1`, the “% inhibition” value is on record as 4%.

Consider `O=C(Nc1cccc2cnccc12)c1ccccc1Sc1ccc2c(/C=C/c3ccccn3)n[nH]c2c1`, for which the “% inhibition” value was 1%.

As for `O=C(Nc1ccc(Cl)c(Cl)c1)c1ccccc1Sc1ccc2c(/C=C/c3ccccn3)n[nH]c2c1`, the “% inhibition” value was 8%.

In the case of `O=C(Nc1ccc(Cl)cc1)c1ccccc1Sc1ccc2c(/C=C/c3ccccn3)n[nH]c2c1`, the “% inhibition” value is −12%.

In the case of `O=C(Nc1ccc(O)cc1)c1ccccc1Sc1ccc2c(/C=C/c3ccccn3)n[nH]c2c1`, the “% inhibition” value is listed as 52%.

Turning to `CS(=O)(=O)c1ccc(NC(=O)c2ccccc2Sc2ccc3c(/C=C/c4ccccn4)n[nH]c3c2)cc1`, the “% inhibition” value is listed as 19%.

For the molecule `O=C(Nc1ccccc1O)c1ccccc1Sc1ccc2c(/C=C/c3ccccn3)n[nH]c2c1`, the “% inhibition” value worked out at 13%.

Regarding `O=C(Nc1ccccc1-n1cccc1)c1ccccc1Sc1ccc2c(/C=C/c3ccccn3)n[nH]c2c1`, the “% inhibition” value is reported as −7%.

As for `O=C(Nc1ccc2c(O)cccc2c1)c1ccccc1Sc1ccc2c(/C=C/c3ccccn3)n[nH]c2c1`, the “% inhibition” value is listed as −26%.

As to `O=C(Nc1ccc2cn[nH]c2c1)c1ccccc1Sc1ccc2c(/C=C/c3ccccn3)n[nH]c2c1`, the “% inhibition” value is listed as 7%.

For `O=C(Nc1ccc2c(c1)OCO2)c1ccccc1Sc1ccc2c(/C=C/c3ccccn3)n[nH]c2c1`, the “% inhibition” value amounted to 9%.

Regarding `O=C(Nc1cc2ccccc2cc1O)c1ccccc1Sc1ccc2c(/C=C/c3ccccn3)n[nH]c2c1`, the “% inhibition” value was 18%.

With `COc1cc(NC(=O)c2ccccc2Sc2ccc3c(/C=C/c4ccccn4)n[nH]c3c2)cc(C(F)(F)F)c1`, the “% inhibition” value was found to be 10%.

With `O=C(Nc1cccc2ncccc12)c1ccccc1Sc1ccc2c(/C=C/c3ccccn3)n[nH]c2c1`, the “% inhibition” value was −37%.

For `O=C(Nc1ccc2[nH]ccc2c1)c1ccccc1Sc1ccc2c(/C=C/c3ccccn3)n[nH]c2c1`, the “% inhibition” value was 43%.

Consider `O=C(Nc1cccc(OC(F)(F)F)c1)c1ccccc1Sc1ccc2c(/C=C/c3ccccn3)n[nH]c2c1`, for which the “% inhibition” value worked out at 5%.

`O=C(Nc1ccc(C2CCCCC2)cc1)c1ccccc1Sc1ccc2c(/C=C/c3ccccn3)n[nH]c2c1`: the “% inhibition” value was 1%.

Take `O=C(Nc1ccc(C(F)(F)F)cc1)c1ccccc1Sc1ccc2c(/C=C/c3ccccn3)n[nH]c2c1`: the “% inhibition” value was −3%.

As to `N#CCc1ccc(NC(=O)c2ccccc2Sc2ccc3c(/C=C/c4ccccn4)n[nH]c3c2)cc1`, the “% inhibition” value was −13%.

For `CC(C)(C)c1ccc(CNC(=O)c2ccccc2Sc2ccc3c(/C=C/c4ccccn4)n[nH]c3c2)cc1`, the “% inhibition” value is recorded as −1%.

Turning to `CC(C)(C)c1ccc(NC(=O)c2ccccc2Sc2ccc3c(/C=C/c4ccccn4)n[nH]c3c2)cc1`, the “% inhibition” value is −1%.

Regarding `CCOc1ccc(NC(=O)c2ccccc2Sc2ccc3c(/C=C/c4ccccn4)n[nH]c3c2)cc1`, the “% inhibition” value is given as 16%.

On to `O=C(Nc1nccc2ccccc12)c1ccccc1Sc1ccc2c(/C=C/c3ccccn3)n[nH]c2c1`, for which the “% inhibition” value is on record as 4%.

Consider `O=C(Nc1ccc(Cl)cn1)c1ccccc1Sc1ccc2c(/C=C/c3ccccn3)n[nH]c2c1`, for which the “% inhibition” value was −23%.

Regarding `Cc1ccc(NC(=O)c2ccccc2Sc2ccc3c(/C=C/c4ccccn4)n[nH]c3c2)nc1`, the “% inhibition” value is given as −20%.

Take `O=C(Nc1nc2ccccc2s1)c1ccccc1Sc1ccc2c(/C=C/c3ccccn3)n[nH]c2c1`: the “% inhibition” value is given as −15%.

As for `Cc1cccc(NC(=O)c2ccccc2Sc2ccc3c(/C=C/c4ccccn4)n[nH]c3c2)n1`, the “% inhibition” value came out at 10%.

For the molecule `Cc1cccnc1NC(=O)c1ccccc1Sc1ccc2c(/C=C/c3ccccn3)n[nH]c2c1`, the “% inhibition” value is listed as −18%.

As to `O=C(NC1CCCc2ccccc21)c1ccccc1Sc1ccc2c(/C=C/c3ccccn3)n[nH]c2c1` (stereo not shown), the “% inhibition” value was found to be 1%.

Regarding `COC1C=CC(CNC(=O)c2ccccc2Sc2ccc3c(/C=C/c4ccccn4)n[nH]c3c2)(OC)O1` (stereo not shown), the “% inhibition” value was found to be 0%.

For the molecule `O=C(Nc1cc(-c2cccs2)n[nH]1)c1ccccc1Sc1ccc2c(/C=C/c3ccccn3)n[nH]c2c1`, the “% inhibition” value is on record as −11%.

As to `O=C(Nc1ccc2[nH]ncc2c1)c1ccccc1Sc1ccc2c(/C=C/c3ccccn3)n[nH]c2c1`, the “% inhibition” value was determined as 22%.

For `O=C(NC1(CO)CCCC1)c1ccccc1Sc1ccc2c(/C=C/c3ccccn3)n[nH]c2c1`, the “% inhibition” value is −5%.

With `CC(C)[C@@H](CO)NC(=O)c1ccccc1Sc1ccc2c(/C=C/c3ccccn3)n[nH]c2c1`, the “% inhibition” value is −19%.

`O=C(Nc1ccc2[nH]nnc2c1)c1ccccc1Sc1ccc2c(/C=C/c3ccccn3)n[nH]c2c1`: the “% inhibition” value is reported as −7%.

With `O=C(NC[C@H](O)c1ccccc1)c1ccccc1Sc1ccc2c(/C=C/c3ccccn3)n[nH]c2c1`, the “% inhibition” value is on record as −34%.

For the molecule `O=C(NCC1COc2ccccc2O1)c1ccccc1Sc1ccc2c(/C=C/c3ccccn3)n[nH]c2c1` (stereo not shown), the “% inhibition” value is on record as −13%.

Take `COc1ccc(CNC(=O)c2ccccc2Sc2ccc3c(/C=C/c4ccccn4)n[nH]c3c2)c(OC)c1`: the “% inhibition” value turned out to be 13%.

Regarding `O=C(Nc1ccc(Cl)cc1CO)c1ccccc1Sc1ccc2c(/C=C/c3ccccn3)n[nH]c2c1`, the “% inhibition” value stood at 48%.

With `O=C(NC[C@@H]1CCCO1)c1ccccc1Sc1ccc2c(/C=C/c3ccccn3)n[nH]c2c1`, the “% inhibition” value is listed as −11%.

Regarding `COc1ccc(NC(=O)c2ccccc2Sc2ccc3c(/C=C/c4ccccn4)n[nH]c3c2)cc1OC`, the “% inhibition” value was found to be 1%.

On to `COc1ccc(Cl)cc1NC(=O)c1ccccc1Sc1ccc2c(/C=C/c3ccccn3)n[nH]c2c1`, for which the “% inhibition” value is listed as −4%.

For the molecule `COc1ccc(CCNC(=O)c2ccccc2Sc2ccc3c(/C=C/c4ccccn4)n[nH]c3c2)cc1`, the “% inhibition” value amounted to 10%.

`O=C(Nc1cnccn1)c1ccccc1Sc1ccc2c(/C=C/c3ccccn3)n[nH]c2c1`: the “% inhibition” value is −1%.

For `O=C(Nc1cccc2ccccc12)c1ccccc1Sc1ccc2c(/C=C/c3ccccn3)n[nH]c2c1`, the “% inhibition” value is on record as −33%.

Take `O=C(Nc1ccc(O)c(Cl)c1)c1ccccc1Sc1ccc2c(/C=C/c3ccccn3)n[nH]c2c1`: the “% inhibition” value was −19%.

Regarding `CCCCOc1ccc(NC(=O)c2ccccc2Sc2ccc3c(/C=C/c4ccccn4)n[nH]c3c2)cc1`, the “% inhibition” value is listed as −6%.

A word on the % inhibition: it is the drop in the measured response relative to a control, in per cent.
